The numbers were not newly measured in patent EP1897537A1, “Composition comprising an angiotensin II receptor antagonist” (Novartis AG, priority 2006, dated 2008), which cites them from elsewhere.

For series [1] the following is noted: immediate release tablet formulation (Diovan ®).
For series [2] the following is noted: most acidic pKa; fumaric acid values at 25 °C.

Regarding `CCCCC(=O)N(Cc1ccc(-c2ccccc2-c2nnn[nH]2)cc1)[C@H](C(=O)O)C(C)C` [Valsartan, (S)-N-(1-carboxy-2-methylprop-1-yl)-N-pentanoyl-N-[2'-(1H-tetrazol-5-yl)biphenyl-4-ylmethyl]amine], the bioavailability entry in series [1] is listed as “around 30%”.
As to `O=C(O)CCC(=O)O` [succinic acid], in series [2], the pKa1 result is “about 4.2”.
